Measurements taken from US20110105408A1, “THERAPEUTIC PEPTIDES” (INTER-K PTY LIMITED, priority 2008, published 2011).

System: HT29 human colorectal adenocarcinoma tumour
Assay: Inhibition of HT29 tumour growth in a mouse model, intra-tumoural injection
Format: in vivo, Mouse (Mus musculus) BALB/c nu/nu
Conditions: for Tumour volume, Delta avg: change in volume from day 0
Description: HT29 human colorectal adenocarcinoma cells were cultured in RPMI 1640 cell culture medium supplemented with 10% v/v FCS and 50 IU/mL penicillin-streptomycin. The cells were harvested by trypsinisation, washed twice in HBSS and counted. The cells were then resuspended in HBSS to a final concentration of 2×10^7 cells/mL.
• Species: Mouse (Mus musculus) • Strain: BALB/c nu/nu • Source: University of Adelaide (Waite Campus, Urrbrae, SA, Australia) • Total number of animals in study: 20 females • Number of study groups: 2 (1 test, 1 control) • Number of mice per group: 10 • Body weight range: 20.61-25.27 g at onset of treatment (mean 22.27 g) • Age range: 10-12 weeks at onset of treatment.
Prior to inoculation the skin on the injection site (dorsal right flank) was swabbed with alcohol. The needle was introduced through the skin into the subcutaneous space just below the animal's right shoulder, and 100 μL of cells (2×10^6 cells) were discharged. The treatment of mice began nine days after HT29 cell inoculation, the average tumour volume was 68 mm^3 (average variability of 6.1%).
Body weight and tumour dimensions (length and diameter) were measured for all animals on the first day of treatment (day 0) and then three times per week, including the termination day of the study (Day 24).
Mice were randomized, based on body weight, into two groups of ten mice on Day 0 of the study. The peptide dendrimer IK248B presenting 10 monomer units of the peptide RSKAKNPLYR (SEQ ID No. 6) (see Example 8) was used in this study. The vehicle control (phosphate buffered saline (PBS)) and IK248B dendrimer (20 mg/kg) were each administered by intra-tumoural injection once daily for five consecutive days, beginning on Day 0.
The vehicle control and IK248B dendrimer were administered at a dosing volume of 4.762 mL/kg (100 μL) based on a 21 g mouse. Each animal's body weight was measured immediately prior to dosing. The volume of dosing solution administered to each mouse was calculated and adjusted based on individual body weight.
Tumours were excised from all mice post mortem and weighed. Tumour volume was calculated using the equation:
V(mm^3)=length×diameter^2×p/6
ΔT/ΔC(%) was calculated using the following equation:
ΔT/ΔC(%)=(ΔvolumeTreatment/ΔVolumeControl)×100
where Δ=change in volume from day 0 to the final measurement day or nominated day of interest.
All statistical calculations were performed using SigmaStat 3.0 (SPSS Australasia, North Sydney, NSW, Australia). A two-sample t-test was used to determine the significance in body weight change within a treatment group between day 0 and day 4, and between day 0 and the termination day of the study. A One-Way Analysis of Variance (ANOVA) was performed on tumour volumes measured in all mice at the end of the study. Where significant differences were found in the data, the All Pairwise Multiple Comparison Procedures (Holm-Sidak Method) were performed. A two-sample t-test was used to show a significant difference between the tumour weight data for the vehicle control and Dend 10 10(4) treatment groups. A p value of less than 0.05 was considered significant.

SMILES: CC(C)C[C@H](NC(=O)[C@@H]1CCCN1C(=O)[C@H](CC(N)=O)NC(=O)[C@H](CCCCN)NC(=O)[C@H](C)NC(=O)[C@H](CCCCN)NC(=O)[C@H](CO)NC(=O)[C@@H](N)CCCNC(=N)N)C(=O)N[C@@H](Cc1ccc(O)cc1)C(=O)N[C@@H](CCCNC(=N)N)C(=O)NCCCC[C@H](NC(=O)[C@H](CCCCNC(=O)[C@H](CCCCNC(=O)[C@H](CCCNC(=N)N)NC(=O)[C@H](Cc1ccc(O)cc1)NC(=O)[C@H](CC(C)C)NC(=O)[C@@H]1CCCN1C(=O)[C@H](CC(N)=O)NC(=O)[C@H](CCCCN)NC(=O)[C@H](C)NC(=O)[C@H](CCCCN)NC(=O)[C@H](CO)NC(=O)[C@@H](N)CCCNC(=N)N)NC(=O)[C@H](CCCNC(=N)N)NC(=O)[C@H](Cc1ccc(O)cc1)NC(=O)[C@H](CC(C)C)NC(=O)[C@@H]1CCCN1C(=O)[C@H](CC(N)=O)NC(=O)[C@H](CCCCN)NC(=O)[C@H](C)NC(=O)[C@H](CCCCN)NC(=O)[C@H](CO)NC(=O)[C@@H](N)CCCNC(=N)N)NC(=O)[C@H](CCCCNC(=O)[C@H](CCCNC(=N)N)NC(=O)[C@H](Cc1ccc(O)cc1)NC(=O)[C@H](CC(C)C)NC(=O)[C@@H]1CCCN1C(=O)[C@H](CC(N)=O)NC(=O)[C@H](CCCCN)NC(=O)[C@H](C)NC(=O)[C@H](CCCCN)NC(=O)[C@H](CO)NC(=O)[C@@H](N)CCCNC(=N)N)NC(=O)[C@H](CCCNC(=N)N)NC(=O)[C@H](Cc1ccc(O)cc1)NC(=O)[C@H](CC(C)C)NC(=O)[C@@H]1CCCN1C(=O)[C@H](CC(N)=O)NC(=O)[C@H](CCCCN)NC(=O)[C@H](C)NC(=O)[C@H](CCCCN)NC(=O)[C@H](CO)NC(=O)[C@@H](N)CCCNC(=N)N)C(=O)NCCCC[C@H](NC(=O)[C@H](CCCCNC(=O)[C@H](CCCNC(=N)N)NC(=O)[C@H](Cc1ccc(O)cc1)NC(=O)[C@H](CC(C)C)NC(=O)[C@@H]1CCCN1C(=O)[C@H](CC(N)=O)NC(=O)[C@H](CCCCN)NC(=O)[C@H](C)NC(=O)[C@H](CCCCN)NC(=O)[C@H](CO)NC(=O)[C@@H](N)CCCNC(=N)N)NC(=O)[C@H](CCCCNC(=O)[C@H](CCCCNC(=O)[C@H](CCCNC(=N)N)NC(=O)[C@H](Cc1ccc(O)cc1)NC(=O)[C@H](CC(C)C)NC(=O)[C@@H]1CCCN1C(=O)[C@H](CC(N)=O)NC(=O)[C@H](CCCCN)NC(=O)[C@H](C)NC(=O)[C@H](CCCCN)NC(=O)[C@H](CO)NC(=O)[C@@H](N)CCCNC(=N)N)NC(=O)[C@H](CCCNC(=N)N)NC(=O)[C@H](Cc1ccc(O)cc1)NC(=O)[C@H](CC(C)C)NC(=O)[C@@H]1CCCN1C(=O)[C@H](CC(N)=O)NC(=O)[C@H](CCCCN)NC(=O)[C@H](C)NC(=O)[C@H](CCCCN)NC(=O)[C@H](CO)NC(=O)[C@@H](N)CCCNC(=N)N)NC(=O)[C@H](CCCCNC(=O)[C@H](CCCNC(=N)N)NC(=O)[C@H](Cc1ccc(O)cc1)NC(=O)[C@H](CC(C)C)NC(=O)[C@@H]1CCCN1C(=O)[C@H](CC(N)=O)NC(=O)[C@H](CCCCN)NC(=O)[C@H](C)NC(=O)[C@H](CCCCN)NC(=O)[C@H](CO)NC(=O)[C@@H](N)CCCNC(=N)N)NC(=O)[C@H](CCCNC(=N)N)NC(=O)[C@H](Cc1ccc(O)cc1)NC(=O)[C@H](CC(C)C)NC(=O)[C@@H]1CCCN1C(=O)[C@H](CC(N)=O)NC(=O)[C@H](CCCCN)NC(=O)[C@H](C)NC(=O)[C@H](CCCCN)NC(=O)[C@H](CO)NC(=O)[C@@H](N)CCCNC(=N)N)C(=O)NCCC(N)=O [IK248B]
- tumour growth compared to vehicle only control (20 mg/kg intra-tumoural once daily for five days): markedly inhibited
- average tumour weight at the end of the study (20 mg/kg intra-tumoural once daily for five days, Day 24, control 0.962 g): 0.437 g
- dT/dC [%] (Day 0): 100.0%
- Tumour volume, Delta avg (Day 0): 0.0 mm^3
- Tumour volume, Average (Day 0 post-initial treatment): 68.0 mm^3
- dT/dC [%] (Day 2): 134.3%
- Tumour volume, Delta avg (Day 2): 68.6 mm^3
- Tumour volume, Average (Day 2 post-initial treatment): 136.6 mm^3
- dT/dC [%] (Day 4): 102.0%
- Tumour volume, Delta avg (Day 4): 144.0 mm^3
- Tumour volume, Average (Day 4 post-initial treatment): 211.9 mm^3
- dT/dC [%] (Day 7): 68.1%
- Tumour volume, Delta avg (Day 7): 180.6 mm^3
- Tumour volume, Average (Day 7 post-initial treatment): 248.6 mm^3
- dT/dC [%] (Day 11): 58.0%
- Tumour volume, Delta avg (Day 11): 232.9 mm^3
- Tumour volume, Average (Day 11 post-initial treatment): 300.9 mm^3
- dT/dC [%] (Day 14): 44.6%
- Tumour volume, Delta avg (Day 14): 255.9 mm^3
- Tumour volume, Average (Day 14 post-initial treatment): 323.9 mm^3
- dT/dC [%] (Day 16): 45.2%
- Tumour volume, Delta avg (Day 16): 323.1 mm^3
- Tumour volume, Average (Day 16 post-initial treatment): 391.0 mm^3
- dT/dC [%] (Day 18): 47.1%
- Tumour volume, Delta avg (Day 18): 408.9 mm^3
- Tumour volume, Average (Day 18 post-initial treatment): 476.9 mm^3
- dT/dC [%] (Day 21): 55.7%
- Tumour volume, Delta avg (Day 21): 598.7 mm^3
- Tumour volume, Average (Day 21 post-initial treatment): 601.5 mm^3
- dT/dC [%] (Day 24): 54.5%
- Tumour volume, Delta avg (Day 24): 710.4 mm^3
- Tumour volume, Average (Day 24 post-initial treatment): 702.1 mm^3
